A short description of the data set: Reverse phase HPLC, degradation products (purity), stability study. Format: physicochemical. The following applies: storage two months (eight weeks) at 4° C., 25° C. and 37° C.

Description: Reverse phase HPLC was used along with visual observations which were conducted at each time point to monitor any precipitation or cloudiness.
The formulations were incubated at 4° C., 25° C. and 37° C. and analyzed for a) degradation products, b) pH stability and c) formulation clarity.
Reverse phase HPLC was used to visualize degradation products.

As to `C[C@H](CCC(=O)[O-])[C@H]1CCC2C3CC[C@@H]4C[C@H](O)CC[C@]4(C)C3C[C@H](O)[C@@]21C.[Na+]` (stereo partly drawn) [sodium deoxycholate, sodium (4R)-4-((3R,5R,10S,12S,13R,17R)-3,12-dihydroxy-10,13-dimethylhexadecahydro-1H-cyclopenta[a]phenanthren-17-yl)pentanoate], the “chemical degradation by reverse phase HPLC” value was “no degradation”.

These data come from patent US10071105B2, “Formulations of deoxycholic acid and salts thereof” (Kythera Biopharmaceuticals, Inc., priority 2009, dated 2018).
